Data published in PMC11397024, “Strategic Fluorination to Achieve a Potent, Selective, Metabolically Stable, and Orally Bioavailable Inhibitor of CSNK2” (Molecules, 2024).

Tests used:
Test in all cases: NanoBRET K192
Type in all cases: cell-based
MET = target: T1, MET (Homo sapiens, UniProt P08581); details: HEK293
T1 construct: purchased Promega (NanoBRET Target Engagement K192 Kinase Selectivity System)
Procedure: (§1) The K192 selectivity assay was run according to the Draft Promega technical manual, NanoBRET^TM Target Engagement K192 Kinase Selectivity System. Reagents were supplied by Promega (Promega NP 4101). For the assay, DNA from the prepared kinase vector panel plates A and B were mixed with Fugene in 96-well plates (Corning 3917) and incubated at room temperature for 30 min. The NanoLuc® Low control vector pNL1.1.CMV [Nluc/CMV] Vector (Cat.# N1091) and the transfection control vector NanoLuc®-HIPK2 Fusion Vector (Cat.# NV3221) were used as controls.
(§2) HEK293 cells were grown to 75–95% confluency in DMEM (Gibco 11995-065) supplemented with FBS (Avantor 97068-085) at 37 °C in […]. On the first day of the assay, cells were harvested and resuspended in Opti-MEM (Gibco 11058-021) supplemented with 1% FBS (Avantor 97068-085) at 2.5 × 10^5 cells per mL. A volume of 60 μL of cell suspension was mixed with 10 μL of prepared DNA (10X concentration) and 30 μL of Fugene (30 μL/mL in Opti-MEM) as outlined by Promega and incubated overnight at 37 °C in a 5% CO2 incubator.
(§3) On day two of the assay, 5 μL of 20X K10 tracer was prepared and added at concentrations recommended by Promega. Then, 10 μL of test compounds at 100 μM in Opti-MEM (diluted from a 10 mM solution in DMSO) was added to the test wells while an equivalent volume of Opti-MEM was added to the high-control wells. Plates were kept at 37 °C in a 5% CO2 incubator for two hours. After two hours, plates were allowed to equilibrate to room temperature for 15 min. A solution of 3X Complete Substrate plus Inhibitor Solution was freshly prepared, consisting of a 1:166 dilution of NanoBRET™ Nano-Glo® Substrate plus a 1:500 dilution of Extracellular NanoLuc® Inhibitor in Opti-MEM® medium without serum or phenol red. A 50 μL volume of the 3X Complete Substrate plus Inhibitor Solution was added to each assay well, including control wells. After 2–3 min, the plate was shaken at 300 RPM for 10 s, and the donor emission wavelength (450 nm) and acceptor emission wavelength (610 nm) were measured using the Glomax® Discover System.
(§4) As a quality check, the donor signal-to-background ratio was calculated for each individual kinase by dividing the mean donor signal for each kinase by the mean donor signal for the signal-to-background control wells. Fractional occupancy of the test drug for each kinase was determined using the following formula:Occupancy (%) = [1 − (Sample − Bottom)/(Top − Bottom)] × 100 where

ICK = target: T2, ICK (Homo sapiens, UniProt Q9UPZ9); details: HEK293
T2 construct: host or cells: HEK293
Procedure: as §1, §2, §3, §4

ERN2 = target: T3, ERN2 (Homo sapiens, UniProt Q76MJ5); details: HEK293
T3 construct: purchased Promega (NanoBRET Target Engagement K192 Kinase Selectivity System)
Procedure: as §1, §2, §3, §4

STK38L = target: T4, STK38L (Homo sapiens, UniProt Q9Y2H1); details: HEK293
T4 construct: purchased Promega (NanoBRET Target Engagement K192 Kinase Selectivity System)
Procedure: as §1, §2, §3, §4

STK3 = target: T5, STK3 (Homo sapiens, UniProt Q13188); details: HEK293
T5 construct: purchased Promega (NanoBRET Target Engagement K192 Kinase Selectivity System)
Procedure: as §1, §2, §3, §4

PRKACB = target: T6, PRKACB (Homo sapiens, UniProt P22694); details: HEK293
T6 construct: purchased Promega (NanoBRET Target Engagement K192 Kinase Selectivity System)
Procedure: as §1, §2, §3, §4

CLK2 = target: T7, CLK2 (Homo sapiens, UniProt P49760)
T7 construct: expressed in transfected cells; host or cells: HEK293
Procedure: as §1, §2, §3, §4

MAST4 = target: T8, MAST4 (Homo sapiens, UniProt O15021); details: HEK293
T8 construct: purchased Promega (NanoBRET Target Engagement K192 Kinase Selectivity System)
Procedure: as §1, §2, §3, §4

FER = target: T9, FER (Homo sapiens, UniProt P16591); details: HEK293
T9 construct: purchased Promega (NanoBRET Target Engagement K192 Kinase Selectivity System)
Procedure: as §1, §2, §3, §4

PLK3 = target: T10, PLK3 (Homo sapiens, UniProt Q9H4B4); details: HEK293
T10 construct: purchased Promega (NanoBRET Target Engagement K192 Kinase Selectivity System)
Procedure: as §1, §2, §3, §4

LCK = target: T11, LCK (Homo sapiens, UniProt P06239); details: HEK293
T11 construct: purchased Promega (NanoBRET Target Engagement K192 Kinase Selectivity System)
Procedure: as §1, §2, §3, §4

CLK4 = target: T12, CLK4 (Homo sapiens, UniProt Q9HAZ1)
T12 construct: expressed in transfected cells; host or cells: HEK293
Procedure: as §1, §2, §3, §4

STK10 = target: T13, STK10 (Homo sapiens, UniProt O94804); details: HEK293
T13 construct: purchased Promega (NanoBRET Target Engagement K192 Kinase Selectivity System)
Procedure: as §1, §2, §3, §4

CDK15 + Y = target: T14, CDK15 + Y (Homo sapiens, UniProt Q96Q40); details: HEK293
T14 construct: purchased Promega (NanoBRET Target Engagement K192 Kinase Selectivity System)
Procedure: as §1, §2, §3, §4

MYLK2 = target: T15, MYLK2 (Homo sapiens, UniProt Q9H1R3); details: HEK293
T15 construct: purchased Promega (NanoBRET Target Engagement K192 Kinase Selectivity System)
Procedure: as §1, §2, §3, §4

SIK1 = target: T16, SIK1 (Homo sapiens, UniProt P57059); details: HEK293
T16 construct: purchased Promega (NanoBRET Target Engagement K192 Kinase Selectivity System)
Procedure: as §1, §2, §3, §4

MYLK3 = target: T17, MYLK3 (Homo sapiens, UniProt Q32MK0); details: HEK293
T17 construct: purchased Promega (NanoBRET Target Engagement K192 Kinase Selectivity System)
Procedure: as §1, §2, §3, §4

LRRK2 = target: T18, LRRK2 (Homo sapiens, UniProt Q5S007); details: HEK293
T18 construct: purchased Promega (NanoBRET Target Engagement K192 Kinase Selectivity System)
Procedure: as §1, §2, §3, §4

BTK = target: T19, BTK (Homo sapiens, UniProt Q06187); details: HEK293
T19 construct: purchased Promega (NanoBRET Target Engagement K192 Kinase Selectivity System)
Procedure: as §1, §2, §3, §4

IRAK4 = target: T20, IRAK4 (Homo sapiens, UniProt Q9NWZ3); details: HEK293
T20 construct: purchased Promega (NanoBRET Target Engagement K192 Kinase Selectivity System)
Procedure: as §1, §2, §3, §4

CDK20 + H = target: T21, CDK20 + H (Homo sapiens, UniProt Q8IZL9); details: HEK293
T21 construct: purchased Promega (NanoBRET Target Engagement K192 Kinase Selectivity System)
Procedure: as §1, §2, §3, §4

NIM1K = target: T22, NIM1K (Homo sapiens, UniProt Q8IY84); details: HEK293
T22 construct: host or cells: HEK293
Procedure: as §1, §2, §3, §4

CSNK2A2 = target: T23, CSNK2A2 (Homo sapiens, UniProt P19784)
T23 construct: expressed in transfected cells; host or cells: HEK293
Procedure: as §1, §2, §3, §4

CAMK1 = target: T24, CAMK1 (Homo sapiens, UniProt Q14012); details: HEK293
T24 construct: purchased Promega (NanoBRET Target Engagement K192 Kinase Selectivity System)
Procedure: as §1, §2, §3, §4

SNRK = target: T25, SNRK (Homo sapiens, UniProt Q9NRH2); details: HEK293
T25 construct: host or cells: HEK293
Procedure: as §1, §2, §3, §4

IKBKE = target: T26, IKBKE (Homo sapiens, UniProt Q14164); details: HEK293
T26 construct: purchased Promega (NanoBRET Target Engagement K192 Kinase Selectivity System)
Procedure: as §1, §2, §3, §4

SNF1LK2 = target: T27, SNF1LK2 (Homo sapiens, UniProt Q9H0K1); details: HEK293
T27 construct: host or cells: HEK293
Procedure: as §1, §2, §3, §4

T12 sequence (Q9HAZ1 whole entry): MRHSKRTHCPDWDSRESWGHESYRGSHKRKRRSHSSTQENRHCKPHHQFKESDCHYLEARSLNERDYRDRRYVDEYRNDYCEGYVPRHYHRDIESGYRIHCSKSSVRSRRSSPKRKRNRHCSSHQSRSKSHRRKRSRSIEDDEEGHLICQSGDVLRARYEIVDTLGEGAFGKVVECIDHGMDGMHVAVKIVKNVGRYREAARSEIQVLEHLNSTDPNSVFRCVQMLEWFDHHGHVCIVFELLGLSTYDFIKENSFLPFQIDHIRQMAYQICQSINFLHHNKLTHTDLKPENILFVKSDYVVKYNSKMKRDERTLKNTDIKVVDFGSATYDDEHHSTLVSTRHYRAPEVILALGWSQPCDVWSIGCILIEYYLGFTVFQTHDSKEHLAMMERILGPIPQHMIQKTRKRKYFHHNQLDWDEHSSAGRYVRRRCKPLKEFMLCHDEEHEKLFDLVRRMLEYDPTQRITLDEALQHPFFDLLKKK
T23 sequence (P19784 whole entry): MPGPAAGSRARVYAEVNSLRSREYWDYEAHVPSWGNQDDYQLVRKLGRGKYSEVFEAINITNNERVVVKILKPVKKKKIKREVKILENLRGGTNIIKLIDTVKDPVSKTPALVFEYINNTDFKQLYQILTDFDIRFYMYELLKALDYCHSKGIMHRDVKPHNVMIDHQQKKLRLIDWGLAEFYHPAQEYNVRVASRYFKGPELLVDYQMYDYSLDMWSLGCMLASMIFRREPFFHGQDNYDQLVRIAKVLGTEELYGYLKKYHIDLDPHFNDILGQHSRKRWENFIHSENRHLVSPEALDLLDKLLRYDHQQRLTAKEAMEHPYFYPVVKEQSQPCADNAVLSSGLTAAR
T7 sequence (P49760 whole entry): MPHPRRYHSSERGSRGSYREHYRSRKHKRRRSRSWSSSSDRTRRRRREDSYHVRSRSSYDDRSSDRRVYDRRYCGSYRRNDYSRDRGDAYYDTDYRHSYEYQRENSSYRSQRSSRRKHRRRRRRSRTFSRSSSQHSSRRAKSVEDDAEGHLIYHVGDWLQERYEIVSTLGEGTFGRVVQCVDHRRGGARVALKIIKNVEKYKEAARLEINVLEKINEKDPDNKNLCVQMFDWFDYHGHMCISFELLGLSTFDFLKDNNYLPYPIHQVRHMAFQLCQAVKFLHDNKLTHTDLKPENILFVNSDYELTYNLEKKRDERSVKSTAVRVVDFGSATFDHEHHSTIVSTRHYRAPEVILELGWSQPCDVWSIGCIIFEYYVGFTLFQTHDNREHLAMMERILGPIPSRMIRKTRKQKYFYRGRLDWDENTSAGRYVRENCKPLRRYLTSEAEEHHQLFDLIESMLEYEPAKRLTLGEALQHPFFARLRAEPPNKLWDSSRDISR
T20 sequence (Q9NWZ3 whole entry): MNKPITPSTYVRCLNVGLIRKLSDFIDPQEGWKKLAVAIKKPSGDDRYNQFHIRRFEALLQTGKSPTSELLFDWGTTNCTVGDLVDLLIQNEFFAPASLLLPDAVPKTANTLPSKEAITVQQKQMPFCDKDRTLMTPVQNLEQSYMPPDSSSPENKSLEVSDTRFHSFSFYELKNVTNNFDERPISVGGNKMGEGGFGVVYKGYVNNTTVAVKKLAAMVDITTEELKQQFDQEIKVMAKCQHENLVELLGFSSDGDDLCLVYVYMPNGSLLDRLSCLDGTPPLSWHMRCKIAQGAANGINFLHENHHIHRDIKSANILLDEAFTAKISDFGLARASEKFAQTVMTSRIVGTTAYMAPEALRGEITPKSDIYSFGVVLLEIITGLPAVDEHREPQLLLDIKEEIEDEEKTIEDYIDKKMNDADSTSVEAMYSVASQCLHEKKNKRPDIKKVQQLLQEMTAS
T18 sequence (Q5S007 whole entry): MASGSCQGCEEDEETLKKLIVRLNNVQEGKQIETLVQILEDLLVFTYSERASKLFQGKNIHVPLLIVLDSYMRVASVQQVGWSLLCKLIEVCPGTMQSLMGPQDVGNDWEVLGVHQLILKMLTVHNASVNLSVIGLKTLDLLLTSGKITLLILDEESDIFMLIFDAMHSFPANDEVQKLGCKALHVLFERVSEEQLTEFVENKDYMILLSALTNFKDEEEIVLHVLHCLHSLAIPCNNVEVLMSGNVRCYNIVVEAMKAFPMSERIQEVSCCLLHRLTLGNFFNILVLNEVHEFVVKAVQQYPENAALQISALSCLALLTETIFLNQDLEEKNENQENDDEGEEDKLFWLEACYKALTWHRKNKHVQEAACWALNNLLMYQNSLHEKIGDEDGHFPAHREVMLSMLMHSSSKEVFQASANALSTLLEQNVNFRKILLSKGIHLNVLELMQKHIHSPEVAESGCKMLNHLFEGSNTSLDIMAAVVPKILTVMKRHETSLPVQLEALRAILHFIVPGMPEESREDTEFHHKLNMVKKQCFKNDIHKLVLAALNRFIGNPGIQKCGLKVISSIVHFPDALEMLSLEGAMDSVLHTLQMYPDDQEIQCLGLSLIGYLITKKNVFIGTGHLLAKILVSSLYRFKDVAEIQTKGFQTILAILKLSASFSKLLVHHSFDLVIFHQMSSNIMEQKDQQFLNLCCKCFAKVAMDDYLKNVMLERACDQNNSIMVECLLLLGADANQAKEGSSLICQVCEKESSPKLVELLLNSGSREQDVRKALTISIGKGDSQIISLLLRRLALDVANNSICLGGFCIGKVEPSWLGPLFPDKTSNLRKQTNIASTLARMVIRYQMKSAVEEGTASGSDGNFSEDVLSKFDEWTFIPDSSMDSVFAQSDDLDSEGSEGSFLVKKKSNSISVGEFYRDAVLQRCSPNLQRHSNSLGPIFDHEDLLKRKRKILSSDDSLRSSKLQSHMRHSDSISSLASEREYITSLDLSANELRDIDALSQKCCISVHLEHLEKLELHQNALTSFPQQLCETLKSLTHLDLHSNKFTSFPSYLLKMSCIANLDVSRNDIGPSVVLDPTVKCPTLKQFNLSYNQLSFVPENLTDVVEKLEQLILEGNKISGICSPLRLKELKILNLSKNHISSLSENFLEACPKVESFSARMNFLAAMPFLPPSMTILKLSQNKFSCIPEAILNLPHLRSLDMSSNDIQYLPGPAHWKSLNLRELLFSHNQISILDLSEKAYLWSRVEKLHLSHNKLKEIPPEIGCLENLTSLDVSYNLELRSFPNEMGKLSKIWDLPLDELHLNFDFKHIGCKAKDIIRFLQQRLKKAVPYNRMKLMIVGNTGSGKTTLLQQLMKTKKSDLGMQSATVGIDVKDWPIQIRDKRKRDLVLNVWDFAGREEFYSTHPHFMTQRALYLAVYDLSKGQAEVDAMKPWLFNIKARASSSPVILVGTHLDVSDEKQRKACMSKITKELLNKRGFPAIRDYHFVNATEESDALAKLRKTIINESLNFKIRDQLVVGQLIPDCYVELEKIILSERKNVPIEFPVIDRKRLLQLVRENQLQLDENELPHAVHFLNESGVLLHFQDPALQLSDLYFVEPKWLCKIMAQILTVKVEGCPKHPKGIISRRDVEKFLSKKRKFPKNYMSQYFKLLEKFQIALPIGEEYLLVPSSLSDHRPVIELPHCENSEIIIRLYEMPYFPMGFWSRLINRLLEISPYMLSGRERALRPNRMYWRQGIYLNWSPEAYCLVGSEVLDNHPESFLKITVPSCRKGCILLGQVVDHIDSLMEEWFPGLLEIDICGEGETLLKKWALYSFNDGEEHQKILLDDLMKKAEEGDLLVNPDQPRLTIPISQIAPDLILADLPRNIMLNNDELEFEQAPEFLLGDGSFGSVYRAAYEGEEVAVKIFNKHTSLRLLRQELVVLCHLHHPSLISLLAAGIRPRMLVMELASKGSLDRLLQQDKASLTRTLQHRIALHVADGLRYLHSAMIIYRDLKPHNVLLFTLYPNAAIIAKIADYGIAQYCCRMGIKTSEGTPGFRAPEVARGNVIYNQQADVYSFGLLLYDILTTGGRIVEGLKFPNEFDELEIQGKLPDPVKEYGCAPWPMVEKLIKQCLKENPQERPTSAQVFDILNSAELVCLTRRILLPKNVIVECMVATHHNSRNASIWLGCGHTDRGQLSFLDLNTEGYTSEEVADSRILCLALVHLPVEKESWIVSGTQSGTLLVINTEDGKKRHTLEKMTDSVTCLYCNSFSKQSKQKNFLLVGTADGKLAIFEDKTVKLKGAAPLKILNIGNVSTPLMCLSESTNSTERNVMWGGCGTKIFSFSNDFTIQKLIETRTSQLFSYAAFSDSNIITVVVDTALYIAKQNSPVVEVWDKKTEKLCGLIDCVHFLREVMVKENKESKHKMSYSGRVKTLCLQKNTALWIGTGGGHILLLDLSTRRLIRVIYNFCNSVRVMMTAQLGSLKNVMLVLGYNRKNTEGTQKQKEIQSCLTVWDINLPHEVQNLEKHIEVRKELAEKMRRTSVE
T24 sequence (Q14012 whole entry): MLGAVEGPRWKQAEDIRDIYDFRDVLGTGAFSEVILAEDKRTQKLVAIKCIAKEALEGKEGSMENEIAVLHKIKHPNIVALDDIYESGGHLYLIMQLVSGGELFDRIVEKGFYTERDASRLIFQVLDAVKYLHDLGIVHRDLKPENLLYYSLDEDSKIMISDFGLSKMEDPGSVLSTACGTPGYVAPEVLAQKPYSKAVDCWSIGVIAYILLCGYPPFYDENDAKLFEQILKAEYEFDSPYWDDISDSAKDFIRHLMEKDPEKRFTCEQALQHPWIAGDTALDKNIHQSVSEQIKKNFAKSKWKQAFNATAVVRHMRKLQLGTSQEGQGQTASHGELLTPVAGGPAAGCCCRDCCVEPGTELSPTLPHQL

SMILES: CCC(=O)Nc1cc(Nc2cc(NC3CC3)n3ncc(C#N)c3n2)c(F)cc1N1CCC[C@H](NC)C1 [Compound 2, (S)-N-(5-((3-cyano-7-(cyclopropylamino)pyrazolo[1,5-a]pyrimidin-5-yl)amino)-4-fluoro-2-(3-(methylamino)piperidin-1-yl)phenyl)propionamide]
- receptor occupancy at 10 µM (MET): 12.3%
- receptor occupancy at 10 µM (ICK): -6.1%
- receptor occupancy at 10 µM (ERN2): 9.2%
- receptor occupancy at 10 µM (STK38L): 4%
- receptor occupancy at 10 µM (STK3): 5.2%
- receptor occupancy at 10 µM (PRKACB): 9.2%
- % occupancy at 10 μM (CLK2; CLK2, HEK293): 85%
- receptor occupancy at 10 µM (CLK2; HEK293, CLK2): 84.8%
- receptor occupancy at 10 µM (MAST4): 11.4%
- receptor occupancy at 10 µM (FER): 3.1%
- receptor occupancy at 10 µM (PLK3): 15.5%
- receptor occupancy at 10 µM (LCK): 4.9%
- % occupancy at 10 μM (CLK4; CLK4, HEK293): 74%
- receptor occupancy at 10 µM (CLK4; HEK293, CLK4): 73.8%
- receptor occupancy at 10 µM (STK10): 14.4%
- receptor occupancy at 10 µM (CDK15 + Y): 26.5%
- receptor occupancy at 10 µM (MYLK2): 13.1%
- receptor occupancy at 10 µM (SIK1): 6.4%
- receptor occupancy at 10 µM (MYLK3): 0.4%
- receptor occupancy at 10 µM (LRRK2): -1.5%
- receptor occupancy at 10 µM (BTK): 3%
- receptor occupancy at 10 µM (IRAK4): 9.2%
- receptor occupancy at 10 µM (CDK20 + H): 23.4%
- receptor occupancy at 10 µM (NIM1K): -23.7%
- % occupancy at 10 μM (CSNK2A2; CSNK2A2, HEK293): 97%
- receptor occupancy at 10 µM (CSNK2A2; HEK293, CSNK2A2): 96.9%
- receptor occupancy at 10 µM (CAMK1): 26.2%
- receptor occupancy at 10 µM (SNRK): -2%
- receptor occupancy at 10 µM (IKBKE): 23.4%
- receptor occupancy at 10 µM (SNF1LK2): -4.8%
